# BindingDB's records for doi:10.7270/Q2ZC817P (The Scripps Research Institute Molecular Screening Center, 2007)
# Where a name gives a salt, the structure may show the parent alone.
# Molecular target: Sphingosine 1-phosphate receptor 1 (Homo sapiens, UniProt P21453)
# Assay: S1P1 agonism potentiation – cell-based, potentiator mode, 60K MLSMR set, dose response (AID 466)
# Settings: not given
# Sequence of Sphingosine 1-phosphate receptor 1 (P21453 whole entry): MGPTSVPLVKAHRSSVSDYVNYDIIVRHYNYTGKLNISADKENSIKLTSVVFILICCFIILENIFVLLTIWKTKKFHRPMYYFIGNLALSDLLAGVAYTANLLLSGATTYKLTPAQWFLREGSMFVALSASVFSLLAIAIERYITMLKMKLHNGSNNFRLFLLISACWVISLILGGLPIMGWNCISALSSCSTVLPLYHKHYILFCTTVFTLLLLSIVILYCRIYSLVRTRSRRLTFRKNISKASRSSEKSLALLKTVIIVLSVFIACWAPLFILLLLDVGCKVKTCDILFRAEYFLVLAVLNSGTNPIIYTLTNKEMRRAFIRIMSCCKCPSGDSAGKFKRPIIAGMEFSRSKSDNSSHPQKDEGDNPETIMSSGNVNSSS
row,Compound,EC50 [µM]
1,Nc1ccc(N2CCCCCC2)cc1 [4-(1-azepanyl)aniline;hydrochloride],> 30
2,"c1ccc(N2CCN(c3ncnc4c3oc3ccccc34)CC2)cc1 [4-(4-phenyl-1-piperazinyl)benzofuro[3,2-d]pyrimidine]",> 95
3,"CCOc1cc(C2NCc3ccccc3-n3cccc32)ccc1O (stereo not given) [4-(5,6-dihydro-4H-pyrrolo[1,2-a][1,4]benzodiazepin-4-yl)-2-ethoxy-phenol;hydrochloride]",15
4,"CN(C)S(=O)(=O)c1ccc(C(=O)Nc2nc(-c3cccs3)cs2)cc1 [4-(dimethylsulfamoyl)-N-(4-thiophen-2-yl-1,3-thiazol-2-yl)benzamide]",> 10
5,COC(=O)c1ccc(OCC(O)Cn2nnc3ccccc32)cc1 (stereo not given) [4-[3-(1-benzotriazolyl)-2-hydroxypropoxy]benzoic acid methyl ester],> 95

# More lines, now with the values ahead:
row,EC50 [µM],Compound
1,8.25,"Cc1ccccc1-c1noc(-c2ccc(O)cc2)n1 [4-[3-(2-methylphenyl)-2H-1,2,4-oxadiazol-5-ylidene]-1-cyclohexa-2,5-dienone]"
2,7.5,O=C(Nc1nccs1)c1ccc(S(=O)(=O)NCC2CCCCC2)cc1 [4-(Cyclohexylmethyl-sulfamoyl)-N-thiazol-2-yl-benzamide]
3,7.02,"CCN(C1CCCCC1)S(=O)(=O)c1ccc(S(=O)(=O)NCc2ccncc2)cc1 [4-N-cyclohexyl-4-N-ethyl-1-N-(pyridin-4-ylmethyl)benzene-1,4-disulfonamide]"
4,6.67,"O=C(NCc1ccccc1)N1CCN(c2ccc(Cl)c(Cl)c2)CC1 [4-(3,4-dichlorophenyl)-N-(phenylmethyl)-1-piperazinecarboxamide]"
5,6.63,"CCOC(=O)N1CCN(C(=O)C2CCN(c3ncnc4c3sc3cccc(F)c34)CC2)CC1 [4-[1-(9-fluorobenzothiopheno[3,2-d]pyrimidin-4-yl)isonipecotoyl]piperazine-1-carboxylic acid ethyl ester]"
6,5.91,"CCOC(=O)c1cnc(-n2nc(C)cc2C)nc1NC1CCCCC1 [4-(cyclohexylamino)-2-(3,5-dimethyl-1-pyrazolyl)-5-pyrimidinecarboxylic acid ethyl ester]"
7,4.07,"O=C(c1cc(-c2ccc(O)cc2)on1)N1CCc2ccccc2C1 [4-[3-(3,4-dihydro-1H-isoquinolin-2-ylcarbonyl)-2H-1,2-oxazol-5-ylidene]cyclohexa-2,5-dien-1-one]"
8,3.6,"Cc1nc2sccn2c1-c1csc(NCc2ccccc2)n1 [4-(6-methyl-5-imidazo[2,1-b]thiazolyl)-N-(phenylmethyl)-2-thiazolamine]"
9,2.14,"CC(C)c1ccc2oc(-c3ccc(N)cc3)nc2c1 [4-(5-propan-2-yl-1,3-benzoxazol-2-yl)aniline]"
10,0.437,"Oc1ccc(-c2nnc(SCC3CCCCC3)o2)cc1 [4-(5-Cyclohexylmethylsulfanyl-[1,3,4]oxadiazol-2-yl)-phenol]"

# Same assay, conditions: inactive by the depositor's call
row,EC50 [µM],Compound
1,17.5,"Cc1cc(C(=O)COC(=O)c2csc3c2CCCC3)c(C)n1C [4,5,6,7-tetrahydro-1-benzothiophene-3-carboxylic acid [2-oxo-2-(1,2,5-trimethyl-3-pyrrolyl)ethyl] ester]"
2,12.2,O=C(OC1CCCCC1)c1ccc(NC(=O)c2ccco2)cc1 [4-(2-furoylamino)benzoic acid cyclohexyl ester]
3,15,"Oc1nnc(Sc2ncnc3sccc23)n1CCc1ccccc1 [4-(2-phenylethyl)-3-(4-thieno[2,3-d]pyrimidinylthio)-1H-1,2,4-triazol-5-one]"
4,13.1,Cc1ccc(Cl)cc1N1CCN(C(=O)COc2ccc(S(=O)(=O)NC(C)C)cc2)CC1 [4-[2-[4-(5-chloranyl-2-methyl-phenyl)piperazin-1-yl]-2-oxidanylidene-ethoxy]-N-propan-2-yl-benzenesulfonamide]
5,10,CCCOC(=O)c1ccc(OCC(O)Cn2c(C)nc3ccccc32)cc1 (stereo not given) [4-[2-hydroxy-3-(2-methyl-1-benzimidazolyl)propoxy]benzoic acid propyl ester]
